“Also recorded” adds a separate entry of the source.
How the values were obtained:
LUC = LUC degradation control in HEK293T; format: cell-based, firefly
Source text: To insert Cry1-Luc, Cry2-Luc constructs and only Luc into pcDNA4A-myc-his plasmid, coding sequence of mouse Cry1 and firefly Luciferase in pG5luc plasmid (Addgene) was amplified with primers having EcoRV-NotI and NotI-XhoI flanking sites for Crys and Luc, respectively. Product size was verified by visualizing in agarose gel and product was isolated from the gel by using NucleoSpin PCR and Gel purification kit (Macherey Nagel). pcDNA4A plasmid having Luc was double digested with NotI and XhoI and used as insert; Cry1 pcDNA4A-myc-his and Cry2 pcDNA4A-myc-his plasmids were double digested with NotI and XhoI FastDigest enzymes (Thermo Scientific) and used as host plasmids. Hosts were treated with FASTAP (Thermo Scientific) to prevent self-annealing. After gel isolation and cleaning inserts with Gel purification kit (Macherey Nagel) and destination vectors were ligated by using T4 DNA ligase (Thermo Scientific).
40 ng of Cry1-Luc, Cry2-Luc, mutant Cry1-Luc plasmids or 5 ng Luc plasmid were reverse transfected to 4×10^4 HEK293T cells on opaque 96-well plate with flat bottom via PEI transfection reagent. 24 h after transfection, cells were treated with molecules or solvent (DMSO). […] Luminescence readings were recorded every 10 min at 32° C. for 24 h. Half-life of protein was calculated via one-phase exponential decay fitting function in GraphPad Prism5 software. […]

[1] = system: Dbp, Cry1, Cry2, Per2 mRNA; experiment: RT-qPCR of clock genes, synchronized U2-OS cells; format: cell-based, human; settings: 10 μM, 72-92 h
Method: FIGS. 3A-3G are an illustration of FORMULA I decreased CRY1 level in synchronized U2-OS cells. Confluent U2-OS cells were synchronized by 2 h treatment with dexamethasone ([…]) and medium replaced with fresh medium containing FORMULA I or solvent (DMSO final 0.5%). Cells were harvested at indicated time points. FIGS. 3A-3B show lysed cells were analyzed via protein immunoblot technique. […] CRY levels in DMSO control divided by that of in FORMULA I treated samples were reported (mean±SEM, n=4). FIGS. 3C-3G show cells were subjected to reverse-transcription-quantitative polymerase chain reaction (RT-qPCR). […] Expression level of genes was normalized according to the expression level of that gene at 72ndh. (Data represent the mean±SEM, n=3 with duplicates ***: p<0.001 **: p<0.005, *: p<0.05 versus DMSO control by two-way ANOVA).
QIAGEN RNeasy Mini Kit was used to isolate the mRNA. Protocol provided by the manufacturer was followed. […] Quantity of RNA was determined by Nanodrop 2000 (Thermo Scientific). […] For quantitative real time PCR (qRT-PCR) analysis cDNAs were further diluted 5-fold (1:5). mRNA expression levels were calculated by qRT-PCR with the SYBR Green. […] 10 seconds denaturation, 57 to 62° C. for 20 seconds annealing (the degree is determined by primer type) and 72° C. for 30 seconds of elongation, 35 cycles. […]

Compound: Cc1c(C(=O)N2CCc3ccccc32)oc2ccc3c(c12)C(=O)CC(C)(c1ccc(Cl)cc1)O3 (stereo not drawn) [FORMULA I, 11-(4-chlorophenyl)-4-(2,3-dihydro-1H-indole-1-carbonyl)-3,11-dimethyl-5,10,dioxatricyclo[7.4.0.0,2,6,]trideca-1,3,6,8-tetraen-13-one]
- stability of LUC (LUC): no effect on the stability of LUC
- Dbp and Per2 mRNA levels [1]: Increase in clock output genes of the Dbp and Per2 mRNA levels; also recorded: increased the level of Dbp and Per2
- peak time and abundance of Cry1, Cry2 (and Dbp) mRNA [1]: changed the peak time without significantly changing their overall abundance; also recorded: changed the peak time of Dbp, Cry1 and Cry2
